Test results as given in patent US20070190539A1, “Human MLR single nucleotide polymorphisms associated with dose-dependent congestive heart failure and methods of use thereof” (Bristol-Myers Squibb Company, priority 2005, published 2007).

Experiment: Phase II clinical trials CV168-006 and CV168-008: diagnosis of congestive heart failure in patients treated with compound A
Format: in vivo, human
Procedure: Genomic DNA samples from patients enrolled in two Bristol-Myers Squibb Company Phase II clinical trials CV168-006 and CV168-008 trials were genotyped for 1 SNP identified in the human mineralocorticoid receptor gene (see Example 1) and evaluated for association with congestive heart failure.
498 subjects enrolled in the CV168-006 trial and 232 subjects from the CV168-008 trial were analyzed in this study. All analyses were based on data collected up to 24 weeks, which was the duration of the short-term phase of the trials. DNA was extracted from frozen blood by a third-party (Genaissance Inc, North Carolina) using a salting-out method (Gentra Systems). All subjects gave written informed consent.
(§1) At the time of this analysis four individuals were diagnosed as having developed congestive heart failure. All four were in the CV168-006 trial; three were being treated with 10 mg of compound A and one with 20 mg of compound A. All SNPs that were analyzed above were also tested for association with CHF using contingency tables.
Sample. Investigators in the BMS clinical trials diagnosed dose-dependent congestive heart failure in some subjects.
Genomic DNA samples from patients enrolled in two Bristol-Myers Squibb Company Phase II clinical trials CV168-006 and CV168-008 trials were genotyped for 1 SNP identified in the human PPAR-gamma gene (see Example 7) and evaluated for association with congestive heart failure.
as §1, with “CV 168-006” for “CV168-006”
Genomic DNA samples from patients enrolled in two Bristol-Myers Squibb Company Phase II clinical trials CV168-006 and CV168-008 trials were genotyped for 1 SNP identified in the human Adiponectin gene (see Example 13) and evaluated for association with congestive heart failure.

With `COc1ccc(OC(=O)N(CC(=O)O)Cc2ccc(OCCc3nc(-c4ccccc4)oc3C)cc2)cc1` [compound A, N-[(4-methoxyphenoxy)carbonyl]-N-[[4-[2-(5-methyl-2-phenyl-4-oxazolyl)ethoxy]phenyl]methyl]glycine] the “individuals who developed congestive heart failure while treated with 10 mg” value (CV168-006 trial, 10 mg of compound A, data up to 24 weeks) was “three”, the “individuals who developed congestive heart failure while treated with 20 mg” value (CV168-006 trial, 20 mg of compound A, data up to 24 weeks) was “one” and the “dose dependence of congestive heart failure (CHF)” value (Phase II trials, patients, high doses = 10 and 20 mg arms) was “observed only at high doses”. For the same compound, the “individuals diagnosed as having developed congestive heart failure” value (all subjects analysed (498 in CV168-006, 232 in CV168-008), data up to 24 weeks, all four cases in the CV168-006 trial) was “four”.
